Test results taken from PubChem BioAssay AID330 (DTP/NCI, 2004).
Several values for one entry are separate records, joined by “and”; a condition that tells them apart may be missing. Identical values can stand only once. Toxic doses and inconclusive results are not listed.

Tested on: P388 leukemia ip, CD2F1 mice, survival T/C
Assay: NCI In Vivo Anticancer Drug Screen. Data for tumor model P388 Leukemia (intraperitoneal) in CD2F1 (CDF1) mice
Conditions: endpoint: median survival time, higher = longer survival
Method in brief: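 Mice carrying the transplanted tumor received test compound or vehicle. Survival was recorded in each group, and the value is the treated-group measurement divided by that of the vehicle-treated control group.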

[1] = dose: 25.0 mg/kg/injection, schedule: Q01DX001 (ip), vehicle: saline with Tween-80
[2] = dose: 50.0 mg/kg/injection, schedule: Q01DX005 (ip), vehicle: saline with Tween-80
[3] = dose: 100.0 mg/kg/injection, schedule: Q01DX005 (ip), vehicle: saline with Tween-80
[4] = dose: 200.0 mg/kg/injection, schedule: Q01DX005 (ip), vehicle: saline with Tween-80
[5] = dose: 50.0 mg/kg/injection, schedule: Q01DX009 (ip), vehicle: saline
[6] = dose: 100.0 mg/kg/injection, schedule: Q01DX009 (ip), vehicle: saline
[7] = dose: 60.0 mg/kg/injection, schedule: Q01DX005 (ip), vehicle: saline
[8] = dose: 120.0 mg/kg/injection, schedule: Q01DX005 (ip), vehicle: saline
[9] = dose: 240.0 mg/kg/injection, schedule: Q01DX005 (ip), vehicle: saline
[10] = dose: 100.0 mg/kg/injection, schedule: Q04DX003 (ip), vehicle: Klucel (hydroxypropylcellulose) (HPC)
[11] = dose: 200.0 mg/kg/injection, schedule: Q04DX003 (ip), vehicle: Klucel (hydroxypropylcellulose) (HPC)
[12] = dose: 400.0 mg/kg/injection, schedule: Q04DX003 (ip), vehicle: Klucel (hydroxypropylcellulose) (HPC)
[13] = dose: 100.0 mg/kg/injection, schedule: Q04DX003 (ip), vehicle: saline with Tween-80
[14] = dose: 200.0 mg/kg/injection, schedule: Q04DX003 (ip), vehicle: saline with Tween-80
[15] = dose: 400.0 mg/kg/injection, schedule: Q04DX003 (ip), vehicle: saline with Tween-80

CC12CCC(=O)C=C1CCC1C2CCC2(C)C(OC(=O)C34C=CC(=O)C3C3C=CC4CC3)CCC12 (configuration not stated)
T/C (dose: 25.0 mg/kg/injection, schedule: Q01DX005 (ip), vehicle: distilled water + Tween-80): 95 % of control | T/C (dose: 50.0 mg/kg/injection, schedule: Q01DX005 (ip), vehicle: distilled water + Tween-80): 92 % of control

CC12CCC(Cl)CC1=CCC1C2CCC2(C)C1CCCN2CCCl (configuration not stated)
T/C (dose: 6.25 mg/kg/injection, schedule: Q01DX001 (ip), vehicle: saline): 99 % of control | T/C (dose: 12.5 mg/kg/injection, schedule: Q01DX001 (ip), vehicle: saline): 98 % of control | T/C [1]: 109 % of control | T/C (dose: 25.0 mg/kg/injection, schedule: Q01DX001 (ip), vehicle: saline): 98 % of control and 104 % of control

O=C1CSC(c2ccc(Cl)c(Cl)c2)N1c1nncs1 (configuration not stated)
T/C [2]: 103 % of control | T/C [3]: 93 % of control | T/C [4]: 99 % of control

CS1(=O)=N/C(=N\C(=O)Nc2ccccc2)c2ccccc21 (configuration not stated)
T/C (dose: 50.0 mg/kg/injection, schedule: Q01DX009 (ip), vehicle: Klucel (hydroxypropylcellulose) (HPC)): 100 % of control | T/C (dose: 100.0 mg/kg/injection, schedule: Q01DX009 (ip), vehicle: Klucel (hydroxypropylcellulose) (HPC)): 102 % of control | T/C (dose: 200.0 mg/kg/injection, schedule: Q01DX009 (ip), vehicle: Klucel (hydroxypropylcellulose) (HPC)): 102 % of control

OC1COCCC(O)(CNCc2ccccc2)C1O (configuration not stated)
T/C [5]: 98 % of control | T/C [6]: 107 % of control

COc1ccc(Cl)c2c1C(=O)C1C(=O)C3C(O)=C(C(=O)NC(C)(C)C)C(=O)C(NC(=O)c4ccccc4)C3CC1C2 (configuration not stated)
T/C (dose: 60.0 mg/kg/injection, schedule: Q01DX005 (ip), vehicle: Klucel (hydroxypropylcellulose) (HPC)): 97 % of control | T/C (dose: 120.0 mg/kg/injection, schedule: Q01DX005 (ip), vehicle: Klucel (hydroxypropylcellulose) (HPC)): 116 % of control | T/C (dose: 240.0 mg/kg/injection, schedule: Q01DX005 (ip), vehicle: Klucel (hydroxypropylcellulose) (HPC)): 190 % of control

C=C1CCN(c2ccc(C)cc2)C1=O
T/C (dose: 4.0 mg/kg/injection, schedule: Q01DX009 (ip), vehicle: saline + alcohol): 100 % of control | T/C (dose: 8.0 mg/kg/injection, schedule: Q01DX009 (ip), vehicle: saline + alcohol): 100 % of control | T/C (dose: 16.0 mg/kg/injection, schedule: Q01DX009 (ip), vehicle: saline + alcohol): 96 % of control | T/C (dose: 64.0 mg/kg/injection, schedule: Q01DX009 (ip), vehicle: saline + alcohol): 94 % of control

O=C/C=C/N=c1ccn(O)cc1
T/C [7]: 105 % of control | T/C [8]: 100 % of control | T/C [9]: 109 % of control

C/C=C(\C)C(=O)OC1C(C)C2(O)C(C=C(CO)CC3(O)C(=O)C(C)=CC32)C2C(C)(C)C12OC(=O)CCCCCCCCC (configuration not stated)
T/C (dose: 0.13 mg/kg/injection, schedule: Q01DX009 (ip), vehicle: saline + alcohol): 124 % of control | T/C (dose: 0.5 mg/kg/injection, schedule: Q01DX009 (ip), vehicle: saline + alcohol): 124 % of control

CCCn1c2ccccc2c2ccccc21
T/C [10]: 104 % of control | T/C [11]: 104 % of control | T/C [12]: 100 % of control

NC(CCC(=O)NCCCC(=O)O)C(=O)O (configuration not stated)
T/C (dose: 100.0 mg/kg/injection, schedule: Q04DX002 (ip), vehicle: saline): 105 % of control | T/C (dose: 200.0 mg/kg/injection, schedule: Q04DX002 (ip), vehicle: saline): 113 % of control | T/C (dose: 400.0 mg/kg/injection, schedule: Q04DX002 (ip), vehicle: saline): 108 % of control

COC(=O)C1c2ccc(OC)c(OC)c2C(=O)N2CCc3cc4c(cc3C12)OCO4 (configuration not stated)
T/C (dose: 50.0 mg/kg/injection, schedule: Q04DX003 (ip), vehicle: distilled water + Tween-80): 95 % of control | T/C (dose: 100.0 mg/kg/injection, schedule: Q04DX003 (ip), vehicle: distilled water + Tween-80): 101 % of control | T/C (dose: 200.0 mg/kg/injection, schedule: Q04DX003 (ip), vehicle: distilled water + Tween-80): 95 % of control | T/C (dose: 400.0 mg/kg/injection, schedule: Q04DX003 (ip), vehicle: distilled water + Tween-80): 104 % of control

O=C1CN(c2cccc(Cl)c2)C(=O)CN1/N=C/c1ccc(O)c(O)c1
T/C [2]: 88 % of control | T/C [3]: 92 % of control | T/C [4]: 100 % of control

C=C1COC(=O)C12CC1CCCC(C)C1(C)C2 (configuration not stated)
T/C (dose: 4.0 mg/kg/injection, schedule: Q01DX009 (ip), vehicle: Klucel (hydroxypropylcellulose) (HPC)): 93 % of control | T/C (dose: 8.0 mg/kg/injection, schedule: Q01DX009 (ip), vehicle: Klucel (hydroxypropylcellulose) (HPC)): 96 % of control | T/C (dose: 16.0 mg/kg/injection, schedule: Q01DX009 (ip), vehicle: Klucel (hydroxypropylcellulose) (HPC)): 94 % of control | T/C (dose: 32.0 mg/kg/injection, schedule: Q01DX009 (ip), vehicle: Klucel (hydroxypropylcellulose) (HPC)): 102 % of control

Cc1nc(N)c2nonc2n1
T/C (dose: 25.0 mg/kg/injection, schedule: Q04DX003 (ip), vehicle: suspension in saline): 98 % of control | T/C (dose: 50.0 mg/kg/injection, schedule: Q04DX003 (ip), vehicle: suspension in saline): 103 % of control | T/C (dose: 100.0 mg/kg/injection, schedule: Q04DX003 (ip), vehicle: suspension in saline): 94 % of control | T/C (dose: 200.0 mg/kg/injection, schedule: Q04DX003 (ip), vehicle: suspension in saline): 95 % of control

CCN(CC)CCC1CN(C(C)C)CC1(c1ccccc1)c1ccccc1 (configuration not stated)
T/C [5]: 101 % of control | T/C [6]: 109 % of control | T/C (dose: 200.0 mg/kg/injection, schedule: Q01DX009 (ip), vehicle: saline): 116 % of control

COc1ccccc1/C=C/C1=C(C)CCC(c2ccccc2OC)C1C (configuration not stated)
T/C [2]: 90 % of control | T/C [3]: 89 % of control | T/C [4]: 89 % of control

O=C1NC(=O)C2NC(O)=C(O)NC2N1 (configuration not stated)
T/C (dose: 12.5 mg/kg/injection, schedule: Q01DX001 (ip), vehicle: saline with Tween-80): 102 % of control | T/C [1]: 108 % of control

CC(C)=CC1C(C(=O)OCc2ccc(C)cc2C)C1(C)C (configuration not stated)
T/C (dose: 100.0 mg/kg/injection, schedule: Q01DX009 (ip), vehicle: saline with Tween-80): 104 % of control | T/C [13]: 100 % of control | T/C (dose: 200.0 mg/kg/injection, schedule: Q01DX009 (ip), vehicle: saline with Tween-80): 109 % of control | T/C [14]: 100 % of control | T/C (dose: 400.0 mg/kg/injection, schedule: Q01DX009 (ip), vehicle: saline with Tween-80): 122 % of control | T/C [15]: 100 % of control

CC(C)N(C(=O)c1ccc(Cl)c(Cl)c1)C(C)C
T/C (dose: 12.5 mg/kg/injection, schedule: Q04DX003 (ip), vehicle: saline with Tween-80): 102 % of control and 103 % of control | T/C (dose: 25.0 mg/kg/injection, schedule: Q04DX003 (ip), vehicle: saline with Tween-80): 102 % of control and 97 % of control | T/C (dose: 50.0 mg/kg/injection, schedule: Q04DX003 (ip), vehicle: saline with Tween-80): 100 % of control and 97 % of control | T/C [13]: 103 % of control and 106 % of control (2×) | T/C [14]: 105 % of control | T/C [15]: 101 % of control

CC1(C)SC(=O)C(=O)S1
T/C (dose: 100.0 mg/kg/injection, schedule: Q04DX003 (ip), vehicle: saline): 103 % of control | T/C (dose: 200.0 mg/kg/injection, schedule: Q04DX003 (ip), vehicle: saline): 93 % of control

CC(C)C12CCC3(C)CCC1(C)CCC32O (configuration not stated)
T/C (dose: 12.0 mg/kg/injection, schedule: Q01DX009 (ip), vehicle: Klucel (hydroxypropylcellulose) (HPC)): 111 % of control | T/C (dose: 24.0 mg/kg/injection, schedule: Q01DX009 (ip), vehicle: Klucel (hydroxypropylcellulose) (HPC)): 96 % of control | T/C (dose: 48.0 mg/kg/injection, schedule: Q01DX009 (ip), vehicle: Klucel (hydroxypropylcellulose) (HPC)): 96 % of control | T/C (dose: 96.0 mg/kg/injection, schedule: Q01DX009 (ip), vehicle: Klucel (hydroxypropylcellulose) (HPC)): 111 % of control

COc1cc(CN2CCN(CCO)CC2)c(O)c(CN2CCN(CCO)CC2)c1
T/C [7]: 108 % of control | T/C [8]: 108 % of control | T/C [9]: 102 % of control

CCC(=NCCCCCCN=C(CC)c1cc(C)cc([N+](=O)[O-])c1O)c1cc(C)cc([N+](=O)[O-])c1O.[Fe]
T/C (dose: 60.0 mg/kg/injection, schedule: Q01DX005 (ip), vehicle: saline with Tween-80): 90 % of control | T/C (dose: 120.0 mg/kg/injection, schedule: Q01DX005 (ip), vehicle: saline with Tween-80): 86 % of control | T/C (dose: 240.0 mg/kg/injection, schedule: Q01DX005 (ip), vehicle: saline with Tween-80): 94 % of control

Cc1cc(C(=O)c2ccccc2)on1
T/C [10]: 104 % of control | T/C [11]: 100 % of control | T/C [12]: 100 % of control
